Assay results published in US20250179028A1, “ACRYLAMIDE COMPOUNDS” (NRG THERAPEUTICS LTD, priority 2022, published 2025).
In brackets after ≈: the same amount, converted by molar mass.

Tests used:
[1] = test system: mPTP; test: mPTP activity (Ca2+ retention) assay in isolated rat liver mitochondria; type: biochemical; conditions: isolated rat liver mitochondria; average value from multiple experiments (n ≥ 2)
From the text: Pharmacological inhibition or modulation of the mPTP can be measured in well characterised ‘Ca^2+ retention’ assays performed in isolated mitochondria. In vitro isolated mitochondria rapidly sequester exogenous Ca^2+ until the intramitochondrial Ca^2+ concentration reaches the threshold for mPTP activation. Once the pore is activated, mitochondrial integrity is compromised and the stored Ca^2+ is released. The distribution of Ca^2+ between extra- and intra-mitochondrial compartments can be measured in real time with the use of membrane-impermeant Ca^2+ sensitive fluorescent dyes. Depending on the configuration of the assay, inhibition or modulation of the mPTP either delays the opening of the pore or increases the concentration of Ca^2+ required to induce mPTP opening.
MPTP activity was measured in mitochondria freshly isolated from female Sprague Dawley (250 to 300 gram) rat livers using the following method. Cervical dislocation was performed on the rat. The liver was then perfused in-situ with ˜40 ml cold Dulbecco's Phosphate Buffered Saline (DPBS) prior to dissection and transferred into 30 ml Isolation Buffer (250 mM Sucrose, 10 mM KCl, 1 mM EGTA, 1 mM EDTA, 25 mM HEPES, adjusted to pH 7.5 with 1 M NaOH). Each lobe of the liver was then removed from the buffer, minced using tweezers and a scalpel into ˜5 mm pieces then transferred into a 50 ml Potterton dounce homogenization tube on ice containing 30 ml ice-cold centrifugation buffer (300 mM Trehalose, 25 mM HEPES, 1 mM EGTA, 1 mM EDTA, 10 mM KCl, adjusted to pH 7.5 with 1 M NaOH and supplemented with 0.1% bovine serum albumin (BSA) and complete protease inhibitor cocktail (one tablet of inhibitor per 50 mls of buffer). Homogenisation was carried out using a teflon pestle at 1800 rpm. The slurry was centrifuged at 800 g for 10 min at 4° C., then the supernatant centrifuged at 10,000 g for 10 min. The pellet was washed once with FLIPR assay buffer (75 mM Mannitol, 25 mM Sucrose, 5 mM Potassium Phosphate Monobasic, 20 mM Tris base, 100 mM KCl, 0.1% BSA adjusted to pH 7.4 with 5M HCl) centrifuged again, then resuspended in FLIPR assay buffer to a concentration of 8.8 mg/ml protein.
Tested compounds (10 mM stock in DMSO) were serially diluted in DMSO in half log steps to generate 10 test concentrations (final concentrations in assay 30 μM to 1 nM). An intermediate dilution of 5 μl DMSO samples into 247 μl FLIPR assay buffer was carried out prior to transfer of 5 μl into duplicate wells of a 384 well polypropylene assay plate. Control wells were 0.5% (v/v) DMSO and 5 μM cyclosporin A.
A stock mitochondria/Fluo5N assay solution was prepared in 5.6 ml FLIPR assay buffer (at RT) supplemented with succinate disodium salt (10 mM), rotenone (1 μM), Fluo5N pentapotassium salt (2 μM) and 1 ml mitochondria suspension, then transferred (15 μl) into the assay plate containing test compounds and incubated for 10 min at RT. Assay plates were then transferred to a FLIPR Tetra plate reader (Molecular Devices). Dye fluorescence was then measured every 3 sec for a total of 10 min. After 12 sec, a 2.5 μl bolus of CaCl2 (75 μM) was added from a source plate containing 675 μM CaCl2 in FLIPR assay buffer. IC50 values for tested compounds were calculated using the fluorescence value collected at the 10 min timepoint with % inhibition calculated using the DMSO control and cyclosporin A values as […] respectively.

[2] = PBS and FaSSIF solubility; type: physicochemical; conditions: aqueous buffer, kinetic from dmso stock; PBS pH 7.4, 2 hr at 25° C.; read-out: Solubility PBS (pH 7.4)
Description: Test compounds were prepared as 10 mM stocks in DMSO and 15 μl samples transferred in duplicate into 1.5 mL glass flat bottom vials (BioTech Solutions). Fasted state simulated intestinal fluid (FaSSIF) or PBS (pH 7.4) was added to each vial to final volume of 500 μl. One PTFE encapsulated stir stick (V&P Scientific) was placed in each vial before sealing with PTFE/SIL plugs (BioTech Solutions). Vials were shaken at 1100 rpm for 2 hr at 25° C. Samples were then filtered through MultiScreen Solvinert filter plates (Millipore) via vacuum filtration. Aliquots of filtrate (5 μl) plus 5 μl DMSO were diluted in 490 μl 50% acetonitrile in water containing internal standard. The filtrate was analysed and quantified against a standard of known concentration using LC-MS/MS. Solubility values of the test compound and control compound were calculated as follows: […]

[3] = biological target: CYP2D6 (Homo sapiens (Human), UniProt P10635); test: Cytochrome P450 CYP2D6 inhibition in human liver microsomes; type: in vitro ADME; conditions: probe dextromethorphan 2 µM (dextrorphan formation); 1 uM test compound, human liver microsomes; average value from two experiments; negative values = no effective inhibition
Description: Studies to assess tested compound mediated inhibition of cytochrome P450 enzyme isoform CYP2D6 were performed using human liver microsomes (BD Gentest) using either a single concentration (1 μM) of test compound or concentration response (0.1, 0.3, 1, 3, 10 and 30 μM) to derive an IC50. Tested compound solutions were prepared from 10 mM stocks in DMSO and diluted to 200 μM in DMSO. Reactions were prepared in a 96 deep well plate by combining 1 μl test compound with 179 μl reaction mixture (100 mM phosphate buffered saline (PBS), 0.2 mg/mL microsomes and 2 μM Dextromethorphan prepared from stocks as detailed below).
The positive control inhibitor, quinidine, was used at a final concentration of 0.5 μM when used at a single concentration. The final concentrations of quinidine used to derive an IC50 were 0, 0.1, 0.3, 1, 3, 10 and 30 μM. Plates were warmed at 37° C. for 15 min before starting reactions with 20 μl 10 mM NADPH solution in PBS and incubated for 20 min at 37° C. The assay is performed in duplicate. Reactions were quenched with 200 μl cold acetonitrile containing internal standards (200 nM labetalol, 200 nM alprazolam and 100 nM tolbutamide). The plate was centrifuged at 4000 rpm for 30 minutes, placed on ice for 20 minutes and then centrifuged at 4000 rpm for 30 minutes again to precipitate protein. 100 μL of the supernatant was transferred to a new plate and diluted with 100 μL pure water before being analysed using UPLC/MS/MS. The products of the transformation for dextromethorphan to dextrorphan was monitored by UPLC-MS/MS. The inhibition of CYP2D6 in human liver microsomes was measured as the percentage decrease in the activity of dextrorphan formation compared to non-inhibited controls (=100% activity). The IC50 value was calculated (test compound concentration which produces 50% inhibition) by using Excel Xlfit.

[4] = Hepatocyte clearance assay, rat; type: in vitro ADME; conditions: cryopreserved primary hepatocytes, average value from two experiments, read-out: Rat heps Clint
Description: In vitro clearance studies were performed in primary rat and human hepatocytes (BiolVT). Vials of cryopreserved rat or human hepatocytes were thawed in a 37° C. water bath for 2 min. Cells were transferred into thawing medium (Williams' Medium E containing 30% Percoll, 1×GlutaMAX-1, 15 mM HEPES, 5% fetal bovine serum (FBS), 4 μg/ml insulin, 1 μM dexamethasone), centrifuged at 100 g for 10 min then resuspended in culture medium (Leibovitz's L-15 Medium) at a concentration of 0.5×10^6 viable cells/mL (number of viable cells assessed using AO/PI staining). Hepatocytes (198 μL) were transferred into wells of a 96-well non-coated plate and placed in a 37° C. incubator for 10 min. Test compound solutions were prepared from 10 mM stocks in DMSO, diluted to 100 μM in 50% (v/v in water) acetonitrile. Test compound samples (2 μl) were added to each well of hepatocytes and incubated at 37° C. Samples (25 μl) were collected at t=0, 15, 30, […] and 120 min, mixed with 6 volumes (150 μl) of acetonitrile containing internal standard (100 nM alprazolam, 200 nM caffeine and 100 nM tolbutamide), vortexed for 5 min and centrifuged for 45 min at 3220 g. An aliquot of supernatant (100 μL) was diluted with 100 μL ultra-pure water, and the mixture was used for LC/MS/MS analysis. All incubations were performed in duplicate. Peak areas were determined from extracted ion chromatograms. The slope value, k, was determined by linear regression of the natural logarithm of the remaining percentage of the parent drug vs. incubation time curve. The in vitro half-life (in vitro t½) was determined from the slope value: in vitro t½=0.693/k. Conversion of the in vitro t½ (in min) into the in vitro intrinsic clearance (in vitro CLint, in μL/min/1×10^6 cells) was done using the following equation (mean of duplicate determinations):
[formula] • V=incubation volume (0.2 mL) • N=number of hepatocytes per well (0.1×10^6 cells).

Chain of CYP2D6 (P10635 whole entry, canonical isoform): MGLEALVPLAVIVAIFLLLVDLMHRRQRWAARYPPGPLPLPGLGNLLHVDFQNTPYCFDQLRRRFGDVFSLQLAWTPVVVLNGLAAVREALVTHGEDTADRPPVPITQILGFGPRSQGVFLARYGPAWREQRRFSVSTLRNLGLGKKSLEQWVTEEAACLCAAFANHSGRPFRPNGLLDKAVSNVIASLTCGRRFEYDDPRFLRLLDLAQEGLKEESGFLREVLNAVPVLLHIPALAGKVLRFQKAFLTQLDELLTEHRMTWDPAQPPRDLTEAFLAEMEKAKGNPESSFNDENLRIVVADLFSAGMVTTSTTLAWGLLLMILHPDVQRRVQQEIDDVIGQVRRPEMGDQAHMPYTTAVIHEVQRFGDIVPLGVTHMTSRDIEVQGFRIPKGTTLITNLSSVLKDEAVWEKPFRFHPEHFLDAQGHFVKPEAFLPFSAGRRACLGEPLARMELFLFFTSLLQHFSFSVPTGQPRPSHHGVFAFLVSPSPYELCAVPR

Structure (SMILES) | mPTP Rat liver pIC50 [1] | solubility at 2 h [2] [µM] | inhibition at 20 min, 1 µM [3] [%] | hepatocyte CLint at 1 µM [4] [µL/min/1e6 cells]
CC(C)c1ccccc1NC(=O)/C=C/c1ccc2oc(=O)[nH]c2c1 [Example 13, (E)-N-(2-isopropylphenyl)-3-(2-oxo-2,3-dihydrobenzo[d]oxazol-5-yl)acrylamide] | 6.0 | 5.3 (≈ 1.71 µg/mL) | 3.84 | –
Cc1cccc(C(C)C)c1NC(=O)/C=C/c1ccc2oc(=O)[nH]c2c1 [Example 14, (E)-N-(2-isopropyl-6-methylphenyl)-3-(2-oxo-2,3-dihydrobenzo[d]oxazol-5-yl)acrylamide] | 6.5 | 16 (≈ 5.38 µg/mL) | -0.52 | –
Cc1c(F)cccc1NC(=O)/C=C/c1ccc2c(c1)NC(=O)C2(C)C [Example 3, (E)-3-(3,3-dimethyl-2-oxoindolin-6-yl)-N-(3-fluoro-2-methylphenyl)acrylamide] | 6.4 | 1.75 (≈ 0.592 µg/mL) | -1.87 | –
Cc1c(F)cccc1NC(=O)/C=C/c1ccc2c(c1)NC(=O)C21CC1 [Example 4, (E)-N-(3-fluoro-2-methylphenyl)-3-(2′-oxospiro[cyclopropane-1,3′-indolin]-6′-yl)acrylamide] | 6.5 | 0.31 (≈ 0.104 µg/mL) | 2.89 | –
Cc1ccccc1NC(=O)/C=C/c1ccc2oc(=O)[nH]c2c1 [Example 12, (E)-3-(2-oxo-2,3-dihydrobenzo[d]oxazol-5-yl)-N-(o-tolyl)acrylamide] | 6.5 | – | 3.05 | –
Cc1c(Cl)cccc1NC(=O)/C=C/c1ccc2oc(=O)[nH]c2c1 [Example 9, (E)-N-(3-chloro-2-methylphenyl)-3-(2-oxo-2,3-dihydrobenzo[d]oxazol-5-yl)acrylamide] | 7.4 | 0.6 (≈ 0.197 µg/mL) | -2.59 | –

Second part, the compound after the results:

mPTP Rat liver pIC50 [1] | solubility at 2 h [2] [µM] | inhibition at 20 min, 1 µM [3] [%] | hepatocyte CLint at 1 µM [4] [µL/min/1e6 cells] | Structure (SMILES)
6.9 | 0.03 (≈ 0.0107 µg/mL) | -0.28 | – | CC(C)c1ccc(Cl)cc1NC(=O)/C=C/c1ccc2oc(=O)[nH]c2c1 [Example 15, (E)-N-(5-chloro-2-isopropylphenyl)-3-(2-oxo-2,3-dihydrobenzo[d]oxazol-5-yl)acrylamide]
– | 0.15 (≈ 0.0468 µg/mL) | 1.91 | – | Cc1ccc(F)cc1NC(=O)/C=C/c1ccc2oc(=O)[nH]c2c1 [Example 17, (E)-N-(5-fluoro-2-methylphenyl)-3-(2-oxo-2,3-dihydrobenzo[d]oxazol-5-yl)acrylamide]
7.5 | – | 3.83 | – | Cc1n[nH]c2cc(/C=C/C(=O)Nc3cccc4cnn(C)c34)ccc12 [Example 39, (E)-3-(3-methyl-1H-indazol-6-yl)-N-(1-methyl-1H-indazol-7-yl)acrylamide]
5.8 | – | 4.52 | – | CC1CCCC1NC(=O)/C=C/c1ccc2oc(=O)[nH]c2c1 (stereo not shown) [Example 49, (E)-N-(2-methylcyclopentyl)-3-(2-oxo-2,3-dihydrobenzo[d]oxazol-5-yl)acrylamide]
6.1 | – | 0.77 | – | Cn1c(=O)[nH]c2cc(/C=C/C(=O)NC3CCc4ccccc43)ccc21 (stereo not shown) [Example 24, (E)-N-(2,3-dihydro-1H-inden-1-yl)-3-(1-methyl-2-oxo-2,3-dihydro-1H-benzo[d]imidazol-5-yl)acrylamide]
– | – | 8.27 | 73.6 | O=C(/C=C/c1ccc2c(C(F)(F)F)n[nH]c2c1)NC1CCc2ccccc21 (stereo not shown) [Example 28, (E)-N-(2,3-dihydro-1H-inden-1-yl)-3-(3-(trifluoromethyl)-1H-indazol-6-yl) acrylamide]
7.2 | – | 7.3 | – | Cc1n[nH]c2cc(/C=C/C(=O)NC3c4ccccc4CC3C)ccc12 (stereo not shown) [Example 38, (E)-3-(3-methyl-1H-indazol-6-yl)-N-(2-methyl-2,3-dihydro-1H-inden-1-yl)acrylamide]
6.3 | – | -0.55 | – | O=C(/C=C/c1ccc2c(C3CC3)n[nH]c2c1)NC1CCc2ccccc21 (stereo not shown) [Example 33, (E)-3-(3-cyclopropyl-1H-indazol-6-yl)-N-(2,3-dihydro-1H-inden-1-yl)acrylamide]
